According to patent US20050249805A1, “Compositions and methods for treating hepatitis C virus (HCV) infection” (priority 2003, published 2005):

Tests used:
carboxylesterase [1] = experiment: Effect of enzyme inhibitors on hydrolysis of III in human liver microsomes; assay type: biochemical; conditions: for inhibition of hydrolysis of III: highest concentrations (NaF 500 mM, BNPP 500 uM); for effect on hydrolysis of III: PMSF 20-500 uM, Proadifen 5-100 uM
Method: Human male liver microsomes (Xenotech LLC, Kansas City, CS) were incubated with III in presence of increasing concentrations of known inhibitors of carboxylesterase, protease, and cytochrome P450 enzymes, followed by LC/MS/MS analysis of a parent compound and a primary metabolite aniline. […] Incubations were carried out at 37° C., at final concentrations of 0.1 M potassium phosphate buffer/0.1 mM EDTA, pH 7.4, specified concentration of inhibitor, 2 μM substrate, 0.5 mg/mL microsomal protein, 0.1% DMSO, 0.5% acetonitrile, in absence of NADPH. Incubations were started with a substrate, following 10 min preincubation of microsomal reaction mixture with inhibitors at 37° C. Reactions were stopped at specified time points with acetonitrile/methanol/DMSO (50:25:25) containing an internal standard.

plasma blood esterases = experiment: Stabilization of III in mouse blood by carboxylesterase inhibitors; assay type: in vitro ADME
Method: Heparinized fresh mouse blood (1.6 mL) from […] was added to Vacutainer Tubes: Cat # 367587, lot 2079758, approx. 2 mL volume (3 mg NaF+6 mg disodium EDTA/tube) and spiked with III at 20 ng/mL blood, with concentration of NaF in blood of […]. Samples were incubated in duplicate at 37° C. up to 2 h. Control samples were incubated in eppendorf tubes without sodium fluoride. Blood concentrations of III and its aniline metabolite were assayed by LC/MS/MS by procedure described in Example 6.

carboxylesterase [2] = experiment: Hydrolysis of Compound III in human colon microsomes, effect of BNPP; assay type: in vitro ADME
[3] = Metabolic stability in human liver microsomes; assay type: in vitro ADME
Method: (§1) Liver microsomes prepared from human (male and/or female) or Sprague-Dawley rat (female) (Xenotech LLC, Kansas City, CS), were incubated with compound II (FIG. 3) or III (FIG. 4), followed by LC/MS/MS analysis of a parent compound and a primary metabolite aniline. Incubations were carried out at 37° C., at final concentrations of 0.1 M potassium phosphate buffer/0.1 mM EDTA, pH 7.4, 1 μM substrate, 0.5 mg/mL microsomal protein, 0.01% DMSO, 0.3% acetonitrile, in presence or absence of 1 mM NADPH. Reactions were stopped at specified time points with acetonitrile/methanol/DMSO (50:25:25) containing an internal standard.

[4] = system: pig liver carboxylesterase (EC 3.1.1.1); experiment: Hydrolysis of III by purified pig liver carboxylesterase; assay type: biochemical, porcine; conditions: enzyme concentration dependent
Method: (§2) The following purified enzymes were used for assays: carboxylesterase from porcine liver (EC 3.1.1.1, Sigma E3019); butyrylcholine esterase, equine serum (pseudocholinesterase EC 3.1.1.8, Sigma C1057); and acetylcholine esterase from electrical eel (EC 3.1.1.7, Sigma C2629).
(§3) Purified enzyme preparations (0.2-2.0 units/mL) were incubated 0-30 min at 37° C. in 0.1 M potassium phosphate buffer, 0.1 mM EDTA, pH 7.4 and 0.5 mg/mL of bovine serum albumin. The substrate was delivered in 0.02% DMSO and 0.6% acetonitrile. Incubations were performed for 0-30 min at 37° C., separately for each time point. The reactions were terminated by precipitation with acetonitrile/ethanol/DMSO mixture, followed by filtering and LC/MS/MS analysis. […] Initial rates of substrate disappearance or product appearance were calculated by linear regression of 5-6 separate incubations.

carboxylesterase [5] = experiment: Hydrolysis of Compound III in human small intestinal microsomes, effect of BNPP; assay type: in vitro ADME
[6] = target: T1, butyrylcholinesterase (BuChE: EC 3.1.1.8) (Equus caballus, UniProt P81908); experiment: Hydrolysis of III by purified butyrylcholinesterase; assay type: biochemical, equine
T1 construct: butyrylcholine esterase, equine serum (pseudocholinesterase EC 3.1.1.8, Sigma C1057); purchased Sigma C1057; host or cells: equine serum
Method: as §2, §3

[7] = Hydrolysis of III in liver microsomes of several species; assay type: in vitro ADME, human, monkey, dog, rabbit, rat, mouse; conditions: rates per mg protein vary with species
Method: FIG. 4A and FIG. 4B show the stability of […] when incubated in presence of microsomes prepared from human liver (FIG. 4A) or rat liver (FIG. 4B).

[8] = mouse, in vivo, po
Method: (§4) Balb/c male mice were predosed intraperitoneally with 100 mg/kg (20 mg/mL) of bis(p-nitrophenyl) phosphate (BNPP) in ethanol/polyethylene glycol (PEG400) 10:40 v/v or the vehicle, one hour before dosing with III at 1 mg/kg (1 mg/mL) by intravenous bolus in PEG400, or at 30 mg/kg (5 mL/kg) orally in TGPS/PEG400/PG/PBS.
(§5) Blood samples were collected into heparinized Microtainer tubes, spiked with 30% BNPP solution in ethanol, 10 μl/mL blood. Livers were snap frozen in liquid nitrogen. Samples were stored at −80° C. until analyzed by LC/MS/MS procedure, as described below.
(§6) The MRM mode of detection was used for LC/MS/MS analysis. Test compounds were extracted from plasma by direct protein precipitation with a mixture of acetonitrile, ethanol and dimethyl sulfoxide (DMSO) (2:1:1 v/v) and internal standard. Following vortexing and centrifugation, 10 μL of the extract was analyzed by LC-MS/MS.
(§7) Liver homogenate (20% volume in DMSO: water) was prepared using a Polytron homogenizer. Test compounds were extracted from 100 μL of the homogenized mixture as described for plasma and analyzed by LC/MS/MS.
(§8) LC/MS/MS was performed on PE-Sciex API3000 triple quadrupole mass spectrometer, using Betasil C8 column (3×50 mm, 3 μm), with mobile phase A: 0.1% formic acid in water, and B: 0.1% formic acid in acetonitrile. Multiple reaction monitoring (MRM) in the positive ionization mode and Analyst 1.1 software was used for quantitation and data acquisition.

[9] = target: T2, acetylcholinesterase (AchE: EC 3.1.1.7) (Electrophorus electricus, UniProt O42275); experiment: Hydrolysis of III by purified acetylcholinesterase; assay type: biochemical, electrical eel
T2 construct: acetylcholine esterase from electrical eel (EC 3.1.1.7, Sigma C2629); purchased Sigma C2629; host or cells: electric eel
Method: as §2, §3

[10] = Effect of BNPP pretreatment on exposure of III in mice; conditions: mice pretreated with BNPP vs untreated
Method: as §4, §5, §6, §7, §8

carboxylesterase [11] = experiment: IC50 of carboxylesterase inhibitor (reduction in metabolic conversion of anti-HCV compound); assay type: biochemical
Text: The suitability of a carboxylesterase inhibitor may be confirmed by the guidance provided herein and by methods well known in the art. In one embodiment, in vitro systems may be used. For example, body fluids (e.g., blood), tissue homogenates, or microsomal preparations from tissues (e.g., liver, intestine, etc.) are contacted with the anti-HCV compound in presence or absence of varying concentrations of inhibitor. Decrease in substrate concentration and/or accumulation of metabolic product (e.g., aniline metabolite) are measured by techniques that include, by way of example and not limitation, LC/MS/MS, GC/MS and/or HPLC. These initial determinations can provide an IC50 of the carboxylesterase inhibitor sufficient to affect biotransformation of the anti-HCV compounds. Moroever, use of purified carboxylesterase enzymes, cDNA expressed enzymes, cells transfected with cloned carboxylesterase genes, etc., can be used to identify the specific enzymes responsible for the biotransformation.
Generally, an inhibitor plasma concentration of 5 μM or less is a reasonable IC50 for in vivo applications.

[12] = In vivo metabolite profile of 14C-labeled II in rats; design: species or system Sprague Dawley rats; conditions: intravenous administration, HPLC
Method: Following administration of the compound to rats, plasma and liver were analyzed by HPLC for drug related metabolites.
Male Sprague Dawley rats were given either a single 1 mg/kg (1 mL/kg) bolus intravenous dose in 70% polyethylene glycol (PEG) 400/30% saline via a tail vein, or a single 1 mg/kg (2 mL/kg) oral dose in 4% polysorbate 80/96% saline of ^14C-labeled anti-HCV II, with radioactive dose of about 30 μCi per animal.
Groups of rats (n=2/dose route/time point) were sacrificed at specified times from 0 to 3 h after dosing. Heparinized plasma and liver were harvested and stored at −70° C. until analyzed. The plasma was assayed by liquid scintillation counting (LSC) in Beckman LS-6000LL Liquid Scintillation Counter.
Livers were homogenized in deionized water, combusted and analyzed by LSC. Portion of the homogenate was extracted by sonication with acetonitrile, centrifuged, and subjected to radioprofiling of supernatant by the Liquid Chromatography with Accurate Radioisotope Counting (LC-ARC). Agilent Series 1100 with Packard Radiomatic 150 radioactivity detector was used for analysis. Waters Spherisorb ODS1, 5 μm, 250×4.6 mm column was used, with mobile phase A: water/acetic acid/ammonium hydroxide (2000:20:20, v/v/v), B: acetonitrile. The radioactivity of peaks was calculated using ARC Data System software.

[13] = Metabolic stability in rat liver microsomes; assay type: in vitro ADME, Sprague-Dawley rat; conditions: rat liver microsomes (FIG. 4B)
Method: as §1

[14] = Human Intestine (pooled 2 subjects), BNPP 50 μM
[15] = Human Intestine (pooled 2 subjects), BNPP 500 μM

T1 sequence (P81908 whole entry): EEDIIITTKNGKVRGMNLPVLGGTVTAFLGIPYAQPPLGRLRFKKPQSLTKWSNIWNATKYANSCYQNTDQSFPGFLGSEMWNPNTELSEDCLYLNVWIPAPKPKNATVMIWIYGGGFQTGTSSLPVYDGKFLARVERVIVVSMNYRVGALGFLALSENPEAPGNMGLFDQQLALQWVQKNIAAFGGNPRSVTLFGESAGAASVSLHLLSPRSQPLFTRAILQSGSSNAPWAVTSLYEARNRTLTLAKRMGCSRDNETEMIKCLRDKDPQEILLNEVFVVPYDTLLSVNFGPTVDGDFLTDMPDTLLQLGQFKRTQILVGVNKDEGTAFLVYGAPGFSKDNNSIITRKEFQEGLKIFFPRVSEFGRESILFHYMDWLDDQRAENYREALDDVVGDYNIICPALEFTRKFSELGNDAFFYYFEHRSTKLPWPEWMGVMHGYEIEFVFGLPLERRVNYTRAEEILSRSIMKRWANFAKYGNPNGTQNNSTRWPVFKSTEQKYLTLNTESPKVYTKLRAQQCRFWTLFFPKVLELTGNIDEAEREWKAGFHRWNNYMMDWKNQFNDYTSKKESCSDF
T2 sequence (O42275 24-633): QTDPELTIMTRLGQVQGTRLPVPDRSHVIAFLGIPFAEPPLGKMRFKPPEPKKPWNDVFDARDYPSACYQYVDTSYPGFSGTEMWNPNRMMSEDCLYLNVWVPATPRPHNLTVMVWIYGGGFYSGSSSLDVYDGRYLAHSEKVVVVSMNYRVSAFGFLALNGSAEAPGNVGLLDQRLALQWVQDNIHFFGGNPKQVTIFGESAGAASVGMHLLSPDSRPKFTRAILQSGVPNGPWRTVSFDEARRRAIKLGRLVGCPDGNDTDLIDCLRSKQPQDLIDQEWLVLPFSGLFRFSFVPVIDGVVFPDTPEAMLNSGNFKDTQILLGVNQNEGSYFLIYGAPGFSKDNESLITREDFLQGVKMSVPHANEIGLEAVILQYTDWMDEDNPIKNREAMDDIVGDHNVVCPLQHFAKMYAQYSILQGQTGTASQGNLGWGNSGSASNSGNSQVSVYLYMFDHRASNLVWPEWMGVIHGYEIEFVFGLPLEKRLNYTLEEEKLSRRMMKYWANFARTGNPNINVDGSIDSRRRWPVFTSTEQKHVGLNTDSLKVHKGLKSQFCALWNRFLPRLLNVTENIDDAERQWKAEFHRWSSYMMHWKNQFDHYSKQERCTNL

[F-].[Na+] [NaF, Sodium fluoride]
inhibition of hydrolysis of III (carboxylesterase [1]): Complete inhibition
effect of inhibitor on hydrolysis of III in blood (plasma blood esterases; 50 mM NaF): prevented hydrolysis

O=C(Nc1ccnc(-c2cc(-c3c(Cl)cccc3Cl)no2)c1)C(Cl)Cl [Compound III]
Activity (carboxylesterase [2]; Subject 1 microsomes, BNPP 0 μM, substrate 1.8 μM, substrate disappearance): 257 pmol/min/mg
Activity (carboxylesterase [2]; Subject 2 microsomes, BNPP 0 μM, substrate 1.8 μM, substrate disappearance): 192 pmol/min/mg
metabolic stability in vitro of III ([3]; human liver microsomes, absence or presence of NADPH): Rapid disappearance of the parent compound
hydrolysis of III by purified enzyme [4]: efficiently hydrolyzed
Activity (carboxylesterase [5]; Human Intestine (pooled 2 subjects) microsomes, BNPP 0 μM, substrate 1.8 μM, substrate disappearance): 1516 pmol/min/mg
stability of III in blood (plasma blood esterases; absence of NaF): rapid decrease in the levels of compound
hydrolysis of III by purified enzyme [6]: not an efficient substrate
hydrolysis of III and conversion to aniline metabolite [7]: occurs in microsomes prepared from livers of human, monkey, dog, rabbit, rat, and mouse
Cmax [8]: increased
bioavailability (F) [8]: increased
circulating metabolite [8]: significantly reduced
plasma exposure (AUC) [8]: increased
hydrolysis of III by purified enzyme [9]: not an efficient substrate

CCCC(C(=O)OCCN(CC)CC)(c1ccccc1)c1ccccc1 [Proadifen, proadifen]
effect on hydrolysis of III (carboxylesterase [1]): did not affect hydrolysis

O=[N+]([O-])c1ccc(OP(=O)(O)Oc2ccc([N+](=O)[O-])cc2)cc1 [BNPP, bis(p-nitrophenyl) phosphate]
Activity (carboxylesterase [2]; Subject 1, BNPP 50 μM): 75%
Inhibition (carboxylesterase [2]; Subject 1, BNPP 50 μM): 25%
Activity (carboxylesterase [2]; Subject 1, BNPP 50 μM, hydrolysis of Compound III 1.8 μM): 192 pmol/min/mg
Activity (carboxylesterase [2]; Subject 2, BNPP 50 μM): 121%
Inhibition (carboxylesterase [2]; Subject 2, BNPP 50 μM): 0%
Activity (carboxylesterase [2]; Subject 2, BNPP 50 μM, hydrolysis of Compound III 1.8 μM): 232 pmol/min/mg
levels of parent compound in the liver [10]: significantly increased
inhibition of hydrolysis of III (carboxylesterase [1]): Complete inhibition
IC50 (carboxylesterase [11]): 10 to 50 µM
Activity (carboxylesterase [5]; [14]): 28%
Inhibition (carboxylesterase [5]; [14]): 72%
Activity (carboxylesterase [5]; Human Intestine (pooled 2 subjects), BNPP 50 μM, hydrolysis of Compound III 1.8 μM): 432 pmol/min/mg
Activity (carboxylesterase [5]; [15]): 2.6%
Inhibition (carboxylesterase [5]; [15]): 97%
Activity (carboxylesterase [5]; Human Intestine (pooled 2 subjects), BNPP 500 μM, hydrolysis of Compound III 1.8 μM): 39 pmol/min/mg

O=S(=O)(F)Cc1ccccc1 [PMSF, phenylmethanesulphonyl fluoride]
effect on hydrolysis of III (carboxylesterase [1]): weak inhibition

O=C(Nc1cccc(-c2cc(-c3c(Cl)cccc3Cl)no2)c1)C(Cl)Cl [Compound II]
stability of II in microsomes ([3]; human liver microsomes (FIG. 4A)): Rapid disappearance of parent compound
metabolite profile in plasma and liver [12]: Aniline is the major product
stability of II in microsomes [13]: Rapid disappearance of parent compound
